Drawing on US7589104B2, “Tricyclic-bridged piperidinyline derivatives as §-opioid modulators” (Janssen Pharmaceutica NV, priority 2004, dated 2009), this text covers Ki for 35 compounds.

SMILES strings stand for the structures. Where two headings read alike, the source gives them in different places.

One experiment concerns the target T1, delta opioid receptor (Rattus norvegicus, UniProt P33533).
T1 construct: from tissue; host or cells: forebrain of male Wistar rats (Charles River)
Briefly: Rat Brain Delta Opioid Receptor Binding Assay.

A further experiment has as its target T2, mu opioid receptor (Rattus norvegicus, UniProt P33535).
T2 construct: Following incubation with the mu selective peptide ligand, ˜0.8 nM [^3H]DAMGO; from tissue; host or cells: forebrain of male Wistar rats (Charles River)
Nature of the experiment: Rat Brain Mu Opioid Receptor Binding Assay.

The mark [1] stands for this setting: rat forebrain membranes, [3H]DAMGO, read-out: mu (Ki).
Setting [2] is: rat forebrain membranes, [3H]DPDPE or [3H]naltrindole, read-out: delta (Ki).

T1 sequence (P33533 whole entry): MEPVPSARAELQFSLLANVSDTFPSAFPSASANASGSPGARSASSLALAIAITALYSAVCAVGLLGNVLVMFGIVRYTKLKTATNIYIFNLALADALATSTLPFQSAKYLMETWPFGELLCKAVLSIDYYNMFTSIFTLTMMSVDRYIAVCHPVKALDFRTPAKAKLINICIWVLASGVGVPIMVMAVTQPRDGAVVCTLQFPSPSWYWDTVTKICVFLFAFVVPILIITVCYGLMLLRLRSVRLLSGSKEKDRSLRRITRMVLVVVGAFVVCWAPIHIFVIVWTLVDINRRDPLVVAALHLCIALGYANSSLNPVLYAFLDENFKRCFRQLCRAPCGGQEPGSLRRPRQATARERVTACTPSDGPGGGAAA
T2 sequence (P33535 whole entry): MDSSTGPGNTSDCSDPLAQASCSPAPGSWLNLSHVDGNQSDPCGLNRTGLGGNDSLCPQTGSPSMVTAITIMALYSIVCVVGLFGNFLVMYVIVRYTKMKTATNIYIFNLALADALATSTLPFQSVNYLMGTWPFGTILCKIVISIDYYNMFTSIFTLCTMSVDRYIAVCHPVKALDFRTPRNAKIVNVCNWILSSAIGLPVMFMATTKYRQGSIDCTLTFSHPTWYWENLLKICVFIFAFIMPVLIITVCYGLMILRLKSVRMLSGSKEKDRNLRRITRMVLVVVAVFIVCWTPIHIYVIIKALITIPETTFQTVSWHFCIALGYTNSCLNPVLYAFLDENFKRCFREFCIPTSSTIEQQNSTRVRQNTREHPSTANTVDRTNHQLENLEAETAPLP

For `CCN(CC)C(=N)c1ccc2c(c1)Oc1ccccc1C2C1CC2CCC(C1)N2Cc1ccccn1` (stereo not drawn) [Compound 7m, N,N-Diethyl-9-(8-pyridin-2-ylmethyl-8-aza-bicyclo[3.2.1]oct-3-yl)-9H-xanthene-3-carboxamidine], the Ki on delta opioid receptor amounted to 17.3 nM. On to `c1ccc2c(c1)Oc1cc(-c3ccncc3)ccc1C2C1CC2CCC(C1)N2Cc1ccoc1` (stereo not drawn) [Compound 25b, 8-Furan-3-ylmethyl-3-(3-pyridin-4-yl-9H-xanthen-9-yl)-8-aza-bicyclo[3.2.1]octane], for which the Ki on mu opioid receptor was determined as 775 nM; at delta opioid receptor, 22.4 nM. `CCN(CC)C(=N)c1ccc2c(c1)Oc1ccccc1C2C1CC2CCC(C1)N2Cc1cccs1` (stereo not drawn) [Compound 6m, N,N-Diethyl-9-(8-thiophen-2-ylmethyl-8-aza-bicyclo[3.2.1]oct-3-yl)-9H-xanthene-3-carboxamidine] gave a Ki at delta opioid receptor of 162 nM.

In the case of `c1ccc2c(c1)Oc1cc(-c3nnn[nH]3)ccc1C2C1CC2CCC(C1)N2` (stereo not drawn) [Compound 5j, 3-[3-(1H-Tetrazol-5-yl)-9H-xanthen-9-yl]-8-aza-bicyclo[3.2.1]octane], the Ki at mu opioid receptor is 4780 nM; on delta opioid receptor it was 477 nM. As for `O=c1[nH]c(-c2ccc3c(c2)Oc2ccccc2C3C2CCNCC2)no1` (stereo not drawn) [Compound 2n, 3-(9-Piperidin-4-yl-9H-xanthen-3-yl)-4H-[1,2,4]oxadiazol-5-one], at delta opioid receptor, the Ki worked out at 1300 nM. Regarding `COc1cccc2c1Oc1cc(Br)ccc1C2C1CC2CCC(C1)N2` (stereo not drawn) [Compound 14k, 3-(3-Bromo-5-methoxy-9H-xanthen-9-yl)-8-aza-bicyclo[3.2.1]octane], the results for the Ki at mu opioid receptor and on delta opioid receptor were 7380 nM and 2880 nM, respectively. For the compound `COc1cccc2c1Oc1cc(-c3cccnc3)ccc1C2C1CC2CCC(C1)N2` (stereo not drawn) [Compound 7k, 3-(5-Methoxy-3-pyridin-3-yl-9H-xanthen-9-yl)-8-aza-bicyclo[3.2.1]octane], the figures for the Ki on mu opioid receptor (setting [1]) and on delta opioid receptor (setting [2]) were 7740 nM and 655 nM, respectively.

`c1cncc(-c2ccc3c(c2)Oc2ccccc2C3C2CC3CCC(C2)N3Cc2cccs2)c1` (stereo not drawn) [Compound 9b, 3-(3-Pyridin-3-yl-9H-xanthen-9-yl)-8-thiophen-2-ylmethyl-8-aza-bicyclo[3.2.1]octane]: the Ki amounted to 1610 nM at mu opioid receptor and 182 nM on delta opioid receptor.

Take `c1ccc2c(c1)Oc1cc(-c3ccsc3)ccc1C2C1CC2CCC(C1)N2` (stereo not drawn) [Compound 6b, 3-(3-Thiophen-3-yl-9H-xanthen-9-yl)-8-aza-bicyclo[3.2.1]octane]: the Ki is 83200 nM on mu opioid receptor and 5800 nM at delta opioid receptor. Turning to `Oc1cccc2c1Oc1cc(-c3cccnc3)ccc1C2C1CC2CCC(C1)N2CCc1ccccc1` (stereo not drawn) [Compound 13k, 9-(8-Phenethyl-8-aza-bicyclo[3.2.1]oct-3-yl)-6-pyridin-3-yl-9H-xanthen-4-ol], the Ki at delta opioid receptor came to 281 nM. For the compound `C=CCN1C2CCC1CC(C1c3ccccc3Oc3cc(-c4ccccc4NC(C)=O)ccc31)C2` (stereo not drawn) [Compound 18b, N-{2-[9-(8-Allyl-8-aza-bicyclo[3.2.1]oct-3-yl)-9H-xanthen-3-yl]-phenyl}-acetamide], the Ki was 3200 nM at mu opioid receptor (setting [1]) and 408 nM at delta opioid receptor (setting [2]).

`c1ccc(CCN2C3CCC2CC(C2c4ccccc4Oc4cc(-c5nnn[nH]5)ccc42)C3)cc1` (stereo not drawn) [Compound 10j, 8-Phenethyl-3-[3-(1H-tetrazol-5-yl)-9H-xanthen-9-yl]-8-aza-bicyclo[3.2.1]octane] came in with a Ki on delta opioid receptor of 1150 nM. Still for that read-out and setting: the same measure for `CC(=O)Nc1ccccc1-c1ccc2c(c1)Oc1c(O)cccc1C2C1CC2CCC(C1)N2Cc1cccs1` (stereo not drawn) [Compound 5l, N-{2-[5-Hydroxy-9-(8-thiophen-2-ylmethyl-8-aza-bicyclo[3.2.1]oct-3-yl)-9H-xanthen-3-yl]-phenyl}-acetamide]: 6.51 nM. With `CC(=O)Nc1ccccc1-c1ccc2c(c1)Oc1ccccc1C2C1CC2CCC(C1)N2CCc1ccccc1` (stereo not drawn) [Compound 17b, N-{2-[9-(8-Phenethyl-8-aza-bicyclo[3.2.1]oct-3-yl)-9H-xanthen-3-yl]-phenyl}-acetamide], the values for the Ki at mu opioid receptor (setting [1]) and on delta opioid receptor were 116 nM and 64.8 nM, respectively. Consider `c1ccc(CN2C3CCC2CC(C2c4ccccc4Oc4cc(-c5ccncc5)ccc42)C3)cc1` (stereo not drawn) [Compound 23b, 8-Benzyl-3-(3-pyridin-4-yl-9H-xanthen-9-yl)-8-aza-bicyclo[3.2.1]octane], for which the Ki on mu opioid receptor is 890 nM; at delta opioid receptor it was 99.7 nM.

Take `CCN(CC)C(=O)c1ccc2c(c1)Oc1ccccc1C2C1CC2CCC(C1)N2C` (stereo not drawn) [Compound 17a, 9-(8-Methyl-8-aza-bicyclo[3.2.1]oct-3-yl)-9H-xanthene-3-carboxylic acid diethylamide]: the Ki on mu opioid receptor and at delta opioid receptor was over 10000 nM each time. Consider `CC(=O)Nc1ccccc1-c1ccc2c(c1)Oc1c(O)cccc1C2C1CC2CCC(C1)N2Cc1ccccc1` (stereo not drawn) [Compound 7l, N-{2-[9-(8-Benzyl-8-aza-bicyclo[3.2.1]oct-3-yl)-5-hydroxy-9H-xanthen-3-yl]-phenyl}-acetamide], for which, on delta opioid receptor, the Ki is 21.8 nM. At delta opioid receptor, `c1ccc(CN2C3CCC2CC(C2c4ccccc4Oc4cc(-c5nnn[nH]5)ccc42)C3)cc1` (stereo not drawn) [Compound 9j, 8-Benzyl-3-[3-(1H-tetrazol-5-yl)-9H-xanthen-9-yl]-8-aza-bicyclo[3.2.1]octane] had a Ki of 176 nM.

Turning to `CCN(CC)C(=N)c1ccc2c(c1)Oc1ccccc1C2C1CC2CCC(C1)N2Cc1ccoc1` (stereo not drawn) [Compound 5m, N,N-Diethyl-9-(8-furan-3-ylmethyl-8-aza-bicyclo[3.2.1]oct-3-yl)-9H-xanthene-3-carboxamidine], the Ki at delta opioid receptor was determined as 234 nM. On the same count and under the same terms, in the case of `Oc1cccc2c1Oc1cc(-c3cccnc3)ccc1C2C1CC2CCC(C1)N2Cc1ccoc1` (stereo not drawn) [Compound 9k, 9-(8-Furan-3-ylmethyl-8-aza-bicyclo[3.2.1]oct-3-yl)-6-pyridin-3-yl-9H-xanthen-4-ol] it was 50.3 nM. In turn, `CC(=O)Nc1ccccc1-c1ccc2c(c1)Oc1c(O)cccc1C2C1CC2CCC(C1)N2Cc1ccoc1` (stereo not drawn) [Compound 4l, N-{2-[9-(8-Furan-3-ylmethyl-8-aza-bicyclo[3.2.1]oct-3-yl)-5-hydroxy-9H-xanthen-3-yl]-phenyl}-acetamide] gave a Ki on delta opioid receptor of 22.2 nM. The same measure, in the same setting: the same measure for `c1ccc2c(c1)Oc1cc(-c3nnn[nH]3)ccc1C2C1CC2CCC(C1)N2Cc1ccoc1` (stereo not drawn) [Compound 6j, 8-Furan-3-ylmethyl-3-[3-(1H-tetrazol-5-yl)-9H-xanthen-9-yl]-8-aza-bicyclo[3.2.1]octane]: 20.6 nM; for `CC(=O)Nc1ccccc1-c1ccc2c(c1)Oc1c(O)cccc1C2C1CC2CCC(C1)N2Cc1ncc[nH]1` (stereo not drawn) [Compound 9l, N-(2-{5-Hydroxy-9-[8-(1H-imidazol-2-ylmethyl)-8-aza-bicyclo[3.2.1]oct-3-yl]-9H-xanthen-3-yl}-phenyl)-acetamide]: 4.9 nM; for `c1csc(CN2C3CCC2CC(C2c4ccccc4Oc4cc(-c5nnn[nH]5)ccc42)C3)c1` (stereo not drawn) [Compound 7j, 3-[3-(1H-Tetrazol-5-yl)-9H-xanthen-9-yl]-8-thiophen-2-ylmethyl-8-aza-bicyclo[3.2.1]octane]: 13.8 nM. Same read-out and setting: the same measure for `CCN(CC)C(=N)c1ccc2c(c1)Oc1ccccc1C2C1CC2CCC(C1)N2` (stereo not drawn) [Compound 4m, 9-(8-Aza-bicyclo[3.2.1]oct-3-yl)-N,N-diethyl-9H-xanthene-3-carboxamidine]: 208 nM; for `CC(=O)Nc1ccccc1-c1ccc2c(c1)Oc1c(O)cccc1C2C1CC2CCC(C1)N2Cc1ccccn1` (stereo not drawn) [Compound 6l, N-{2-[5-Hydroxy-9-(8-pyridin-2-ylmethyl-8-aza-bicyclo[3.2.1]oct-3-yl)-9H-xanthen-3-yl]-phenyl}-acetamide]: 49.9 nM. The same measure, in the same setting: the same measure for `O=C(c1ccc2c(c1)Oc1ccccc1C2C1CC2CCC(C1)N2)N1CCC(O)C1` (stereo not drawn) [Compound 3o, [9-(8-Aza-bicyclo[3.2.1]oct-3-yl)-9H-xanthen-3-yl]-(3-hydroxy-pyrrolidin-1-yl)-methanone]: 1210 nM; for `Oc1cccc2c1Oc1cc(-c3cccnc3)ccc1C2C1CC2CCC(C1)N2Cc1ccccc1` (stereo not drawn) [Compound 12k, 9-(8-Benzyl-8-aza-bicyclo[3.2.1]oct-3-yl)-6-pyridin-3-yl-9H-xanthen-4-ol]: 39.4 nM; for `CCN(CC)C(=N)c1ccc2c(c1)Oc1ccccc1C2C1CC2CCC(C1)N2CCc1ccccc1` (stereo not drawn) [Compound 9m, N,N-Diethyl-9-(8-phenethyl-8-aza-bicyclo[3.2.1]oct-3-yl)-9H-xanthene-3-carboxamidine]: 903 nM.

On to `Oc1cccc2c1Oc1cc(-c3cccnc3)ccc1C2C1CC2CCC(C1)N2Cc1cccs1` (stereo not drawn) [Compound 10k, 6-Pyridin-3-yl-9-(8-thiophen-2-ylmethyl-8-aza-bicyclo[3.2.1]oct-3-yl)-9H-xanthen-4-ol], for which, at delta opioid receptor, the Ki stood at 45.2 nM.

The compound `Oc1cccc2c1Oc1cc(-c3cccnc3)ccc1C2C1CC2CCC(C1)N2Cc1ccccn1` (stereo not drawn) [Compound 11k, 6-Pyridin-3-yl-9-(8-pyridin-2-ylmethyl-8-aza-bicyclo[3.2.1]oct-3-yl)-9H-xanthen-4-ol] showed a Ki at delta opioid receptor of 3.05 nM. The same measure, in the same setting: the same measure for `CC(=O)Nc1ccccc1-c1ccc2c(c1)Oc1c(O)cccc1C2C1CC2CCC(C1)N2CCc1ccccc1` (stereo not drawn) [Compound 8l, N-{2-[5-Hydroxy-9-(8-phenethyl-8-aza-bicyclo[3.2.1]oct-3-yl)-9H-xanthen-3-yl]-phenyl}-acetamide]: 26.6 nM. With `CCN(CC)C(=N)c1ccc2c(c1)Oc1ccccc1C2C1CC2CCC(C1)N2Cc1ccccc1` (stereo not drawn) [Compound 8m, 9-(8-Benzyl-8-aza-bicyclo[3.2.1]oct-3-yl)-N,N-diethyl-9H-xanthene-3-carboxamidine], at delta opioid receptor, the Ki was found to be 349 nM. On the same count and under the same terms, in the case of `c1cncc(-c2ccc3c(c2)Oc2ccccc2C3C2CC3CCC(C2)N3Cc2ncc[nH]2)c1` (stereo not drawn) [Compound 26b, 8-(1H-Imidazol-2-ylmethyl)-3-(3-pyridin-3-yl-9H-xanthen-9-yl)-8-aza-bicyclo[3.2.1]octane] it was 338 nM; in that of `c1ccc(CN2C3CCC2CC(C2c4ccccc4Oc4cc(-c5nnn[nH]5)ccc42)C3)nc1` (stereo not drawn) [Compound 8j, 8-Pyridin-2-ylmethyl-3-[3-(1H-tetrazol-5-yl)-9H-xanthen-9-yl]-8-aza-bicyclo[3.2.1]octane], 178 nM.
